Read-outs that look alike come from different tables or passages of the source.
Key:
adult Musca domestica = assay: Musca domestica test (MUSCDO); format: in vivo; settings: treated sponge, read-out: kill in % (flies killed)
Method: Solvent: dimethyl sulphoxide
Vessels containing a sponge treated with the active compound preparation of the desired concentration are populated with adult Musca domestica.
After the desired period of time, the kill in % is determined.

[1] = tested on: caterpillars of the armyworm (Spodoptera frugiperda); assay: Spodoptera frugiperda test (SPODFR spray treatment); format: in vivo; settings: Spodoptera frugiperda, foliar, read-out: effect in % (caterpillars killed)
Text: (§1) Solvent: 78.0 parts by weight of acetone

[2] = tested on: larvae of the mustard beetle (Phaedon cochleariae); assay: Phaedon test (PHAECO spray treatment); settings: Phaedon cochleariae, in Brassica rapa, foliar, read-out: effect in % (beetle larvae killed)
[3] = log P determination by HPLC (EEC Directive 79/831 Annex V.A8); format: physicochemical
Method: The measurements were carried out using an Agilent 1100 LC system with a 50*4.6 Zorbax Eclipse C18 1.8 μm column (oven temperature 55° C., flow rate 2.0 ml/min).
The following mobile phases were used:
Mobile phase A: acetonitrile+1000 μl of formic acid/l
Mobile phase B: Millipore water+900 μl of formic acid/l

[4] = tested on: green peach aphid (Myzus persicae); assay: Myzus test (MYZUPE spray treatment); format: in vivo; settings: Myzus persicae, foliar, read-out: effect in % (aphids killed)
Text: Solvent: 78 parts by weight of acetone
as §1

[5] = application rate 100 g/ha, maize leaf discs
[6] = application rate 100 g/ha, Chinese cabbage leaf discs
[7] = reversed-phase HPLC, Zorbax Eclipse C18 column, determined by HPLC according to EEC Directive 79/831 Annex V.A8, read-out: log P

Row | Structure (SMILES) | pest or weed control at 100 ppm (adult Musca domestica) | pest or weed control at 100 g/ha ([1]; in Zea mays) | pest or weed control at 100 g/ha [2] | chromatographic logP ([3]; log P) | pest or weed control at 100 g/ha [1, 5] | chromatographic logP ([3]; reversed-phase HPLC, Zorbax Eclipse C18 column, by HPLC according to EEC Directive 79/831 Annex V.A8, read-out: log P) | pest or weed control at 100 g/ha [4, 6] | chromatographic logP [3, 7] | pest or weed control at 100 g/ha ([4]; in Brassica rapa)
1 | O=C(NC1CC1)c1cc(Cl)cc(Cl)c1NC(=O)c1cc(Cn2nnc(C(F)(F)C(F)(F)F)n2)nn1-c1ncccc1Cl [Example 151] | ≥ 80% | ≥ 80% | ≥ 80% | 3.57 | – | – | – | – | –
2 | Cc1cc(C#N)cc(C(=O)NC(C)C)c1NC(=O)c1cc(Cn2nnc(C(F)(F)F)n2)nn1-c1ccccc1Cl [Example 341] | – | – | ≥ 80% | – | ≥ 80% | 3.6 | ≥ 80% | – | –
3 | Cc1cc(Cl)cc(C(=O)NCC#N)c1NC(=O)c1cc(Cn2nnnc2C(F)(F)F)nn1-c1ncccc1Br [Example 486] | – | – | ≥ 80% | – | ≥ 80% | – | ≥ 80% | 2.64 | –
4 | Cc1cc(C#N)cc(C(=O)NOCC2CC2)c1NC(=O)c1cc(Cn2nnc(C(F)(F)F)n2)nn1-c1ncccc1Cl [Example 397] | – | ≥ 80% | ≥ 80% | 2.96 | – | – | – | – | ≥ 80%
5 | Cc1cc(Cl)cc(C(=O)NC(C)C)c1NC(=O)c1cc(Cn2nnnc2C(F)(F)F)nn1-c1ncccc1Br [Example 485] | – | – | ≥ 80% | – | ≥ 80% | – | ≥ 80% | 3.14 | –
6 | CSC[C@H](C)NC(=O)c1cc(Cl)cc(Cl)c1NC(=O)c1cc(Cn2nnc(C(F)(F)F)n2)nn1-c1ncccc1Cl [Example 64] | – | ≥ 80% | ≥ 80% | 3.62 | – | – | – | – | ≥ 80%
7 | CNC(=O)c1cc(F)cc(C)c1NC(=O)c1cc(Cn2nnnc2C(F)(F)F)nn1-c1ncccc1Cl [Example 167] | – | ≥ 80% | ≥ 80% | 2.32 | – | – | – | – | ≥ 80%
8 | Cc1cc(C#N)cc(C(=O)NCC(F)F)c1NC(=O)c1cc(Cn2nnc(C(F)(F)F)n2)nn1-c1ncccc1Cl [Example 91] | – | ≥ 80% | ≥ 80% | 2.91 | – | – | – | – | ≥ 80%
9 | N#CCNC(=O)c1cc(Cl)cc(Cl)c1NC(=O)c1cc(Cn2nnc(C(F)(F)C(F)(F)F)n2)nn1-c1ncccc1Cl [Example 158] | – | ≥ 80% | ≥ 80% | 3.32 | – | – | – | – | ≥ 80%
10 | Cc1cc(C#N)cc(C(=O)NC2CCC2)c1NC(=O)c1cc(Cn2nnc(C(F)F)n2)nn1-c1ncccc1Cl [Example 270] | – | ≥ 80% | ≥ 80% | 2.7 | – | – | – | – | ≥ 80%
11 | Cc1cc(Cl)cc(C(=O)NC2CC2)c1NC(=O)c1cc(Cn2nnnc2C(F)(F)C(F)(F)F)nn1-c1ncccc1Cl [Example 200] | – | ≥ 80% | ≥ 80% | 3.32 | – | – | – | – | ≥ 80%
12 | Cc1cc(F)cc(C(=O)NC(C)C)c1NC(=O)c1cc(Cn2nnnc2C(F)(F)F)nn1-c1ncccc1Cl [Example 168] | – | ≥ 80% | ≥ 80% | 2.76 | – | – | – | – | ≥ 80%
13 | Cc1cc(C#N)cc(C(=O)NC2CC2)c1NC(=O)c1cc(Cn2nnc(C(F)F)n2)nn1-c1ncccc1Cl [Example 264] | – | ≥ 80% | ≥ 80% | 2.39 | – | – | – | – | ≥ 80%
14 | O=C(NCC1CC1)c1cc(Cl)cc(Cl)c1NC(=O)c1cc(Cn2nnc(C(F)F)n2)nn1-c1ncccc1Cl [Example 289] | – | ≥ 80% | ≥ 80% | 3.01 | – | – | – | – | ≥ 80%
15 | Cc1cc(C#N)cc(C(=O)NCC2CC2)c1NC(=O)c1cc(Cn2nnc(C(F)(F)F)n2)nn1-c1ccccc1Cl [Example 440] | – | – | ≥ 80% | – | ≥ 80% | – | ≥ 80% | 3.61 | –
16 | Cc1cc(C#N)cc(C(=O)NCCC(F)(F)F)c1NC(=O)c1cc(Cn2nnc(C(F)(F)F)n2)nn1-c1ncccc1Cl [Example 159] | – | ≥ 80% | ≥ 80% | 3.22 | – | – | – | – | ≥ 80%
